Assay [1] addresses T1, Acetylcholinesterase (Bos taurus, UniProt P23795).
T1 sequence (P23795 whole entry): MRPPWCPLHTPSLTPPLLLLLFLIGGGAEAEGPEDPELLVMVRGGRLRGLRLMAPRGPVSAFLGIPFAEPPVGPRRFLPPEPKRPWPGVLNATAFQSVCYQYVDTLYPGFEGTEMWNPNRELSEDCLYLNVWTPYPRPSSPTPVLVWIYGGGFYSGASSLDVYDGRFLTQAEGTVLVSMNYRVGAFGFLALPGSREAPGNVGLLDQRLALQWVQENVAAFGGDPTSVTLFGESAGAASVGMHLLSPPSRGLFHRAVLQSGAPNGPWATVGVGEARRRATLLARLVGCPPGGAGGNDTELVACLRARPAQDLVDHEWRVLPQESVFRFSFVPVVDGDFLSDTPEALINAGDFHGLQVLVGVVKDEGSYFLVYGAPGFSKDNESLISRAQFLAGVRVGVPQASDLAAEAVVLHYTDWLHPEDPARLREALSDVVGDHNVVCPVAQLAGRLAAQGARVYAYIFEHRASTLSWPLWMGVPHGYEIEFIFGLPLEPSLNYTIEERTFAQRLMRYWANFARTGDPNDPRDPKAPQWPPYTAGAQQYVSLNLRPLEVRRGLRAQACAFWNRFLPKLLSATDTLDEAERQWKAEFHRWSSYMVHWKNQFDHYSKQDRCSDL
Description: Inhibition of bovine AChE after 20 mins using acetylthiocholine iodide as a substrate by Ellman's assay

Assay [2] in a line: Selectivity index, ratio of IC50 for equine BChE to IC50 for bovine AChE.
Assay [3] addresses Butyrylcholinesterase (Equus caballus, UniProt Q9N1N9).
Description: Inhibition of equine BChE after 20 mins using butyrylthiocholine iodide as a substrate by Ellman's assay

Chain of Butyrylcholinesterase (Q9N1N9 whole entry): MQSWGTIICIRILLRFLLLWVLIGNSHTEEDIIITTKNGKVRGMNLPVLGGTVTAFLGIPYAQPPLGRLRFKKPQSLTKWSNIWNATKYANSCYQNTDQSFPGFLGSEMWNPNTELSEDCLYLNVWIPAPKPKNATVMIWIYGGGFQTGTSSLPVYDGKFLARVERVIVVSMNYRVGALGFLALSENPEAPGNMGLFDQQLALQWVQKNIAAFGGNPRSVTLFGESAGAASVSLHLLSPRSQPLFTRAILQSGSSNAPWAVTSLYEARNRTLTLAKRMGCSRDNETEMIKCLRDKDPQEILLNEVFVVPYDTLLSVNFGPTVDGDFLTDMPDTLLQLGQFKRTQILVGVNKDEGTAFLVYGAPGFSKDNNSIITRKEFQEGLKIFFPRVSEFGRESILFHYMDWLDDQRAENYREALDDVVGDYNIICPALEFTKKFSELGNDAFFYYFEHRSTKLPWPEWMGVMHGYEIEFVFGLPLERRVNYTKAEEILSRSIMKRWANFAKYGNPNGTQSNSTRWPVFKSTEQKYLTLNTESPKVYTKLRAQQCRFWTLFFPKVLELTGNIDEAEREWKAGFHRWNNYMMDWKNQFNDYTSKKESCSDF

With `c1cc(C[n+]2ccc(N3CCCCC3)cc2)ccc1CCc1ccc(C[n+]2ccc(N3CCCCC3)cc2)cc1`, the figures for the half-maximal inhibitory concentration (IC50) in assay [1] and in assay [3] were 79 nM and 130 nM, respectively. Besides, the Ratio IC50 in assay [2] turned out to be 1.6.
For `OC1C[N+]2(Cc3ccc(CCc4ccc(C[N+]56CCC(CC5)C(O)C6)cc4)cc3)CCC1CC2` (stereo unspecified), the IC50 was 97 nM in assay [1] and 2090 nM in assay [3]. Moreover, in assay [2], the Ratio IC50 was 22.
Taken in the same sequence, the figures for `c1cc(C[n+]2ccc(N3CCCC3)cc2)ccc1Cc1ccc(C[n+]2ccc(N3CCCC3)cc2)cc1` were 183 nM, 576 nM and 3.1.
Turning to `COc1cc2c(cc1OC)CN(c1cc[n+](Cc3ccc(-c4ccc(C[n+]5ccc(N6CCc7cc(OC)c(OC)cc7C6)cc5)cc4)cc3)cc1)CC2`, the IC50 turned out to be 94 nM in assay [1] and 1530 nM in assay [3]. Besides, in assay [2], the Ratio IC50 worked out at 16.
Taken in the same sequence, the figures for `c1cc(C[n+]2ccc(N3CCCC3)cc2)ccc1CCCCc1ccc(C[n+]2ccc(N3CCCC3)cc2)cc1` were 104 nM, 671 nM and 6.5.
Taken in the same sequence, the figures for `COc1cc2c(cc1OC)CN(c1cc[n+](Cc3ccc(C[n+]4ccc(N5CCc6cc(OC)c(OC)cc6C5)cc4)cc3)cc1)CC2` were 1950 nM, 1370 nM and 0.7.
Take `OC1C[N+]2(Cc3ccc(/C=C/c4ccc(C[N+]56CCC(CC5)C(O)C6)cc4)cc3)CCC1CC2` (stereo unspecified): the 50% inhibitory concentration (IC50) in assay [1] worked out at 141 nM; in assay [3], 5340 nM. Moreover, the Ratio IC50 in assay [2] is 38.
For `c1cc(C[n+]2ccc(N3CCCCC3)cc2)cc(C[n+]2ccc(N3CCCCC3)cc2)c1` the same measures were 114 nM, 335 nM and 2.9.
In the case of `CN(C)c1cc[n+](Cc2cc(C[n+]3ccc(N(C)C)cc3)cc(C[n+]3ccc(N(C)C)cc3)c2)cc1`, it took 2750 nM to reach half-maximal inhibition in assay [1] (IC50). For the same compound, in assay [2], the Ratio IC50 was 3.6.
Regarding `C(=C\c1ccc(C[n+]2ccc(N3CCCCC3)cc2)cc1)/c1ccc(C[n+]2ccc(N3CCCCC3)cc2)cc1`, the IC50 was 582 nM in assay [1] and 247 nM in assay [3]. For the same compound, the Ratio IC50 in assay [2] is 0.42.
For `CN(c1cc[n+](Cc2cc(C[n+]3ccc(N(C)c4cc(Cl)cc(Cl)c4)cc3)cc(C[n+]3ccc(N(C)c4cc(Cl)cc(Cl)c4)cc3)c2)cc1)c1cc(Cl)cc(Cl)c1` the same measures were 1770 nM, 679 nM and 0.38.
In the case of `CN(C)c1cc[n+](Cc2cccc(C[n+]3ccc(N(C)C)cc3)c2)cc1`, the 50% inhibitory concentration (IC50) in assay [1] stood at 390 nM; in assay [3] it was 7560 nM. In addition, the Ratio IC50 in assay [2] is 19.
As to `Cc1c[n+](Cc2cccc(-c3cccc(C[n+]4cc(C)c(N)c5ccccc54)c3)c2)c2ccccc2c1N`, the IC50 in assay [1] is 497 nM; in assay [3], 59 nM. Further, the Ratio IC50 in assay [2] was 0.12.
Taken in the same sequence, the figures for `CN(c1cc[n+](Cc2ccc(-c3ccc(C[n+]4ccc(N(C)c5cc(Cl)cc(Cl)c5)cc4)cc3)cc2)cc1)c1cc(Cl)cc(Cl)c1` were 2870 nM, 550 nM and 0.19.
`CN(C)c1cc[n+](C[C@@H]2C[C@H]2C[n+]2ccc(N(C)C)cc2)cc1` (relative stereo): in assay [1], the IC50 amounted to 8780 nM.
Take `c1cc(C[n+]2ccc(N3CCc4ccccc4C3)cc2)cc(C[n+]2ccc(N3CCc4ccccc4C3)cc2)c1`: the values for the IC50 in assay [1] and in assay [3] were 281 nM and 190 nM, respectively. Moreover, the Ratio IC50 in assay [2] was found to be 0.68.
`CN(C)c1cc[n+](Cc2ccc(C[n+]3ccc(N(C)C)cc3)cc2)cc1` returned a 50% inhibitory concentration (IC50) in assay [1] of 1310 nM. For the same compound, the Ratio IC50 in assay [2] turned out to be 7.6.
Regarding `c1ccc2c(c1)CCN(c1cc[n+](Cc3ccc(C[n+]4ccc(N5CCc6ccccc6C5)cc4)cc3)cc1)C2`, the IC50 in assay [1] came out at 126 nM; in assay [3] it was 327 nM. Moreover, the Ratio IC50 in assay [2] came out at 2.6.
Taken in the same sequence, the figures for `c1cc2cc(c1)C[n+]1ccc(cc1)NCc1ccc(cc1)CNc1cc[n+](cc1)C2` were 3900 nM, 850 nM and 0.22.
Taken in the same sequence, the figures for `CN(c1ccc(Cl)cc1)c1cc[n+](Cc2cccc(-c3cccc(C[n+]4ccc(N(C)c5ccc(Cl)cc5)cc4)c3)c2)cc1` were 1780 nM, 496 nM and 0.28.
For `c1cc(-c2ccc(C[n+]3ccc(N4CCCC4)cc3)cc2)ccc1C[n+]1ccc(N2CCCC2)cc1` the same measures were 90 nM, 1270 nM and 14.
As to `COc1cc2c(cc1OC)CN(c1cc[n+](Cc3cccc(C[n+]4ccc(N5CCc6cc(OC)c(OC)cc6C5)cc4)c3)cc1)CC2`, the IC50 amounted to 2100 nM in assay [1] and 890 nM in assay [3]. For the same compound, the Ratio IC50 in assay [2] stood at 0.42.
Regarding `CN(c1cc[n+](Cc2ccc(C[n+]3ccc(N(C)c4cc(Cl)cc(Cl)c4)cc3)cc2)cc1)c1cc(Cl)cc(Cl)c1`, the IC50 in assay [1] was 5200 nM; in assay [3], 1600 nM. In addition, in assay [2], the Ratio IC50 came to 0.31.
Regarding `Cc1c2c(C)c3c(C)c1C[n+]1ccc(cc1)NCc1cc(cc(c1)CNc1cc[n+](cc1)C3)CNc1cc[n+](cc1)C2`, the IC50 was 3680 nM in assay [1] and 516 nM in assay [3]. In assay [2], the Ratio IC50 came out at 0.14.
Taken in the same sequence, the figures for `c1cc(C[n+]2ccc(N3CCCCCC3)cc2)ccc1CCc1ccc(C[n+]2ccc(N3CCCCCC3)cc2)cc1` were 86 nM, 274 nM and 3.2.
Taken in the same sequence, the figures for `CN(c1ccc(Cl)cc1)c1cc[n+](Cc2ccc(-c3ccc(C[n+]4ccc(N(C)c5ccc(Cl)cc5)cc4)cc3)cc2)cc1` were 3070 nM, 683 nM and 0.22.
For `Nc1cc[n+](Cc2ccc(CCc3ccc(C[n+]4ccc(N)c5ccccc54)cc3)cc2)c2ccccc12` the same measures were 672 nM, 620 nM and 0.92.
For `c1cc(C[n+]2ccc(N3CCCC3)cc2)ccc1CCc1ccc(C[n+]2ccc(N3CCCC3)cc2)cc1`, the half-inhibitory concentration (IC50) is 385 nM in assay [1] and 735 nM in assay [3]. Moreover, the Ratio IC50 in assay [2] was 1.9.
`c1cc(C[n+]2ccc(N3CCCCC3)cc2)ccc1Cc1ccc(C[n+]2ccc(N3CCCCC3)cc2)cc1`: the half-maximal inhibitory concentration (IC50) amounted to 83 nM in assay [1] and 62 nM in assay [3]. Moreover, the Ratio IC50 in assay [2] stood at 0.75.
As to `COc1cc2c(cc1OC)CN(c1cc[n+](Cc3cccc(-c4cccc(C[n+]5ccc(N6CCc7cc(OC)c(OC)cc7C6)cc5)c4)c3)cc1)CC2`, the half-inhibitory concentration (IC50) in assay [1] stood at 519 nM; in assay [3], 1170 nM. Besides, in assay [2], the Ratio IC50 stood at 2.3.
For `CN(c1ccccc1)c1cc[n+](Cc2cccc(C[n+]3ccc(N(C)c4ccccc4)cc3)c2)cc1` the same measures were 1150 nM, 910 nM and 0.79.
For `CN(C)c1cc[n+](Cc2ccc(CCCCc3ccc(C[n+]4ccc(N(C)C)cc4)cc3)cc2)cc1` the same measures were 252 nM, 372 nM and 1.5.
For `c1ccc2c(c1)CCN(c1cc[n+](Cc3ccc(-c4ccc(C[n+]5ccc(N6CCc7ccccc7C6)cc5)cc4)cc3)cc1)C2` the same measures were 346 nM, 318 nM and 0.92.
As to `c1ccc(C[n+]2ccc(N3CCCC3)cc2)cc1`, the midpoint of inhibition in assay [1], the IC50, lay at 5530 nM.

Source of the values: ChEMBL document CHEMBL1770085, “Homodimeric bis-quaternary heterocyclic ammonium salts as potent acetyl- and butyrylcholinesterase inhibitors: a systematic investigation of the influence of linker and cationic heads over affinity and selectivity” (J Med Chem, 2011).
